Data taken from patent publication US9371281B2, “Indole derivatives as inhibitors of histone deacetylase” (Pharmacyclics LLC, priority 2006, dated 2016).
Entries after “also recorded” stand apart in the source; their conditions may differ. Values belong to the molecule of their own block, whether it stands above or below them.

Assays:
[1] = test system: normal human peripheral blood mononuclear cells; assay: Cell proliferation, Alamar Blue assay (FIG. 9B); assay type: cell-based; settings: PBMCs, 24 hours
A549 (lung) = assay: Apoptosis in solid tumor cells, Annexin V assay; assay type: cell-based
HCT116 (colon) = assay: Apoptosis in solid tumor cells, Annexin V assay; assay type: cell-based, human
U87 (glioma) = assay: Apoptosis in solid tumor cells, Annexin V assay; assay type: cell-based
RKO (colon) = assay: Apoptosis in solid tumor cells, Annexin V assay; assay type: cell-based
MCF-7 (breast) = assay: Apoptosis in solid tumor cells, Annexin V assay; assay type: cell-based
PC3 (prostate) = assay: Apoptosis in solid tumor cells, Annexin V assay; assay type: cell-based
Ovcar-3 (ovarian) = assay: Apoptosis in solid tumor cells, Annexin V assay; assay type: cell-based
Jurkat [2] = assay: Apoptosis in T-cell lines, Annexin-V positive cells by flow cytometry; assay type: cell-based; settings: 3 Day dose
J.γ1 [3] = assay: as above; assay type: cell-based; settings: 3 Day dose
P116 [4] = assay: as above; assay type: cell-based; settings: 3 Day dose
J.RT3-T.5 [5] = assay: as above; assay type: cell-based; settings: 3 Day dose
Jurkat cells = assay: Compound 23 induced apoptosis with Ca2+ effectors; assay type: cell-based
Excerpt: […]. […] […].

[6] = test system: Cytochrome C translocation in Jurkat cells; assay: Cytochrome C translocation, Western blotting of mitochondrial and cytosolic fractions; assay type: cell-based; settings: 12 or 24 hours
[7] = test system: IL-1b secretion in human PBMCs; assay: Inhibition of IL-1b secretion in human PBMCs; assay type: cell-based; settings: FIG. 11
Description: Lipopolysaccharide (LPS, 25 ng/ml) is then added to stimulate the cells for another 16 hour incubation period in 5% CO2. IL-1b cytokine levels in the conditioned medium are then quantitated using a sandwich ELISA kit. Compounds are screened at 10, 1, 0.1, 0.01 and 0.001 μM. These same concentrations are concurrently applied to a separate group of treated cells and evaluated for possible compound-induced cytotoxicity.

[8] = test system: IL-1b secretion in THP-1 monocyte cell line; settings: LPS, FIG. 12
HDAC8 protein expression = assay: Western blot of HDAC8 after 24 hr treatment in Jurkat cells
Description: (§1) Western blot of HDAC8 & HDAC1 after 24 hr treatment in Jurkat cells were obtained.

Jurkat [9] = assay: Growth inhibition in T-cell lines (Table 6); assay type: cell-based; settings: Homo sapiens, 72 h, 3 Day dose
J.γ1 [10] = assay: Growth inhibition in T-cell lines (Table 6); assay type: cell-based; settings: 72 h, J.γ1 (Phospholipase C-γ1 deficient), 3 Day dose
P116 [11] = assay: Growth inhibition in T-cell lines (Table 6); assay type: cell-based; settings: 72 h, P116 (ZAP-70 deficient), 3 Day dose
J.RT3-T.5 [12] = assay: Growth inhibition in T-cell lines (Table 6); assay type: cell-based; settings: 72 h, J.RT3-T.5 (TCR-β chain deficient), 3 Day dose
HDAC1 levels = settings: Jurkat cells, 24 hr treatment, Western blot
Description: as §1

SMILES: COc1ccc(Cn2ccc3ccc(C(=O)NO)cc32)cc1 [Compound 23, 1-(4-methoxy-phenylmethyl)-1H-indole-6-carboxylic acid hydroxyamide]
effect on growth [1]: failed to inhibit the growth; also recorded: does not inhibit growth | % apoptosis at 20 μM (Annexin V assay) (A549 (lung)): 0% | % apoptosis at 20 μM (Annexin V assay) (HCT116 (colon)): 3% | % apoptosis at 20 μM (Annexin V assay) (U87 (glioma)): 0% | % apoptosis at 20 μM (Annexin V assay) (RKO (colon)): 0% | % apoptosis at 20 μM (Annexin V assay) (MCF-7 (breast)): 0% | % apoptosis at 20 μM (Annexin V assay) (PC3 (prostate)): 0% | % apoptosis at 20 μM (Annexin V assay) (Ovcar-3 (ovarian)): 15% | Apoptosis at 5 μM (%) (Jurkat [2]; 5 μM): 43% | Apoptosis at 5 μM (%) (J.γ1 [3]; J.γ1, 5 μM): 12% | Apoptosis at 5 μM (%) (P116 [4]; P116, 5 μM): 82% | Apoptosis at 5 μM (%) (J.RT3-T.5 [5]; J.RT3-T.5, 5 μM): 67% | compound 23 induced apoptosis with Ca2+ effector thapsigargin (Jurkat cells; compound 23=5 μM, thapsigargin=0.2 μM): enhanced | compound 23 induced apoptosis with Ca2+ chelator BAPTA-AM (Jurkat cells; compound 23=10 μM, BAPTA 0.5 μM): inhibited | Cytochrome C translocation from mitochondria to cytosol [6]: Cytochrome C translocation from mitochondria to cytosol | IL-1b secretion [7]: inhibition of IL-1b secretion | IL-1b secretion [8]: reduction of IL-1b secretion | HDAC8 protein levels (HDAC8 protein expression): affected

GI50 (Jurkat [9]): 130 nM
SMILES: CN(C)Cc1c(C(=O)NCCOc2ccc(C(=O)NO)cc2)oc2ccccc12 [PCI-24781, reference compound]
GI50 (J.γ1 [10]): 140 nM | GI50 (P116 [11]): 190 nM | GI50 (J.RT3-T.5 [12]): 140 nM | Apoptosis at 0.125 μM (%) (Jurkat [2]; 0.125 μM): 48% | Apoptosis at 0.125 μM (%) (J.γ1 [3]; J.γ1, 0.125 μM): 18% | Apoptosis at 0.125 μM (%) (P116 [4]; P116, 0.125 μM): 76% | Apoptosis at 0.125 μM (%) (J.RT3-T.5 [5]; J.RT3-T.5, 0.125 μM): 32% | HDAC8 protein levels (HDAC8 protein expression): affected | HDAC1 levels (HDAC1 levels): decreased
